Laboratory results taken from patent publication US20130225694A1, “COMPOSITIONS AND METHODS OF INHIBITING RETINAL DEGENERATION” (Oklahoma Medical Research Foundation, priority 2012, published 2013).

Legend:
rhodopsin = experiment: Rhodopsin regeneration after bleach in rats, IP nitrone; assay type: in vivo, rat
Protocol: FIG. 10 graphically illustrates the effects of three PBN analogs of rhodopsin regeneration. Rhodopsin content was measured as nmole/retina following the procedure as in Mandal et al. (J Biol. Chem. 2011. 286 (37):32491-501). After injection with PBN derivatives or vehicles (saline), rats were left in room light for 2 hours (light adapted or LA) and then moved to dark. At 2.5 hours dark adaptation (DA), retinas were harvested. DA-Control, Dark adapted (12 h) control retina without any treatment to show normal rhodopsin content.
Measurement of rhodopsin regeneration—To measure the effect of PBN on the rate of rhodopsin regeneration, dark-adapted rats were injected intraperitoneally with PBN (50 mg/kg) or PBS 0.5 hour prior to a 2 hour bleach in room light (˜400 lux). Immediately following the bleach (time=0 minutes), a group of PBN- and vehicle-treated rats were killed, and retinas were removed and snap frozen. The remaining rats were dark-adapted, and retinas were collected under dim red light at 45, 90, and 180 minutes after the bleach.
Rhodopsin measurements were performed as described previously (2,36) with slight modification. Briefly, under dim red light, each retina was homogenized in 450 μl of buffer containing 10 mM Tris-HCl (pH 7.4), 150 mM NaCl, 1 mM EDTA, 2% (w/v) octylglucoside, and 50 mM hydroxylamine. Homogenates were centrifuged at 16,000 g, and soluble lysates were scanned from 270-800 nm in a spectrophotometer (Ultrospec 3000 UV/Vis Spectrophotometer, GE Healthcare, Piscataway, N.J.). Samples were then bleached under room light for 10 minutes and scanned again. The difference spectra at 500 nm between pre- and post-bleached samples were used to determine rhodopsin content using a molar extinction coefficient of […] (37). The values were normalized to the total lysate volume, and data are presented as rhodopsin content/retina.

rod photoreceptors = experiment: Recovery of rod photoresponses after bleaching (dark adaptation ERG) in rats; assay type: in vivo, rat; conditions: 50 mg/kg IP
Protocol: Possible defects in the visual cycle were analyzed by measuring the time course of dark adaptation (recovery of rod photoreceptor sensitivity) following a bleaching light exposure. Rats were fully dark-adapted and injected intraperitoneally with PBN (50 mg/kg) or saline. Full-field scotopic ERGs for both eyes were recorded after 3 hours of PBN injection. A single test flash of 2.3 log cd·s/m^2 was presented to elicit the rod a-wave response under fully dark-adapted conditions. Rats were then exposed to a steady field of log 2.3 cd·s/m^2 for 2 minutes in the Ganzfeld dome to bleach rod photoreceptors. Immediately following the bleaching period (time=0 minutes) and every 10 minutes thereafter (time=10, 20, 30, 40, 50, and 60 minutes), the same test flash of 2.3 log cd·s/m^2 was presented. The a-wave responses at the indicated times after bleaching were normalized to the initial dark-adapted response for each rat.
Effect of PBN on the rate of recovery of rod photoresponses: dark adaptation ERG—The damaging effect of bright light requires a functional rhodopsin photopigment (23). It is well established that PBN protects against light damage (1), and the inventors previously speculated that PBN, as part of its protective mechanism, might down-regulate rhodopsin regeneration rate (2). […]

mouse retina = experiment: Light-damage protection by topical PBN eye drops in mice (ERG); assay type: in vivo; conditions: 10% PBN eye drop in V1 or V2; 3,000 lux 6 h; ERG five days after
Protocol: After topical application of PBN, light-damage was done at 3,000 lux for 6 h. ERG response were recorded five days after light-damage. Two vehicles were used to solubilize and make 10% PBN eye drop formulation for topical application on mouse eye, vehicle 1 (V-1) and vehicle 2 (V-2).
After topical application of PBN, light-damage was done at 3,000 lux for 6 h. ERG responses were recorded five days after light-damage. Two vehicles were used to solubilize and make the 10% PBN eye drop formulation for topical application on mouse eyes, vehicle 1 (V-1) and vehicle 2 (V-2). […] Vehicle 1 contains 10 mM potassium borate/bicarbonate buffer (pH 7.2), glycerine, 1.0%, carboxymethylcellulose 0.3%, benzyl alcohol 0.3%, and 30% 1-methyl-2-pyrrolidinone (a solubilizing enhancer, a.k.a., N-Methyl-2-Pyrrolidone—“NMP”). Vehicle 2 contains 137 mM sodium chloride, 2.7 mM potassium chloride in 10 mM phosphate buffer (pH 7.4), and 30% 1-methyl-2-pyrrolidinone.

Rat Retina = conditions: 50 mg/kg 0.5 hour before light stress 2,700 lux for 24 hours; earlier publication (1); cited from earlier work

With CC(C)(C)/[N+]([O-])=C/c1ccccc1 [Compound 1, α-phenyl-N-tert-butyl nitrone] the “effect on rhodopsin regeneration” value (rhodopsin; 50 mg/kg IP, 2.5 hours in the dark (FIG. 10)) was “blocked rhodopsin regeneration significantly”, the “rhodopsin regenerated after bleach” value (rhodopsin; 50 mg/kg IP, 45 minutes in darkness after 2 h bleach) was “virtually no rhodopsin was regenerated” and the bleachable rhodopsin recovered (rhodopsin; 50 mg/kg IP, dark adaptation for 3 hours after 2 h bleach) was ~30%. For the same compound, the inhibition at 50 mg/kg (rhodopsin; Rattus norvegicus, rats, 50 mg/kg IP, 2 h room light then 2.5 h dark adaptation) was 83%, the “rhodopsin content of rats maintained in darkness” value (rhodopsin; fully dark-adapted rats, mean±SEM) was 1.38±0.14 nmol/eye and the “fully dark-adapted a-wave response” value (rod photoreceptors; 2.3 log cd·s/m^2 test flash before bleach, n=4) was −441.5±70.66 μV. For the same compound, the “recovery of the initial fully dark-adapted rod response” value (rod photoreceptors; 40 minutes after the bleaching illumination) was 25%, the “rod function (scotopic A-wave) after light-damage” value (mouse retina) was “significant restoration of rod function” and the “protection of retinal structure and function” value (Rat Retina) was 80-90%.
